# Results: patent US20230167467A1, “METHODS AND COMPOSITIONS FOR THE PRODUCTION OF ISOBUTENE” (University of Alaska Anchorage, priority 2020, published 2023)
# Tested on: Engineered strains of E. coli
# Type: cell-based
# [1] = after solvent exposure, vs positive control
structure (smiles),measurement,setting,value
C1=CCCCC1 [cyclohexene],"expression of acid resistance genes (gad, adi families)",,downregulated
same,"expression of chaperone proteins groLS, spy, and dnaJK",,highly upregulated
same,expression of dihydroxyacetone kinase genes dhaKLM,,upregulated
same,expression of galactitol metabolism genes gatABD,,upregulated
same,expression of heat shock proteins and chaperones hslJORUV,,increased
same,expression of ibpAB and clpAB (protein protection and repair),,increased
same,expression of marABC (multiple antibiotic resistance),,upregulated
same,expression of nitrate reductase genes narGHJKP,,upregulated
same,expression of phage shock genes pspABCDE,,highly upregulated
same,change in expression of gene adiA,[1],−1.87 ± 0.86
same,change in expression of gene adiC,[1],−1.64 ± 1.02
same,change in expression of gene adiY,[1],−2.84 ± 0.66
same,change in expression of gene bhsA,[1],4.18 ± 0.60
same,change in expression of gene bssR,[1],2.27 ± 0.44
same,change in expression of gene bssS,[1],6.69 ± 0.84
same,change in expression of gene clpA,[1],4.12 ± 0.63
same,change in expression of gene clpB,[1],6.17 ± 0.69
same,change in expression of gene clpP,[1],2.72 ± .59
same,change in expression of gene coaA,[1],−1.36 ± 0.88
same,change in expression of gene coaD,[1],1.34 ± 0.90
same,change in expression of gene cspA,[1],−6.07 ± 0.58
same,change in expression of gene cspB,[1],−4.10 ± 1.31
same,change in expression of gene cspC,[1],−3.65 ± 0.94
same,change in expression of gene cspD,[1],2.88 ± 0.57
same,change in expression of gene cspE,[1],−0.06 ± 0.63
same,change in expression of gene cspF,[1],−2.37 ± 1.04
same,change in expression of gene dhaK,[1],3.72 ± 0.59
same,change in expression of gene dhaL,[1],2.40 ± 0.62
same,change in expression of gene dnaJ,[1],6.64 ± 0.69
same,change in expression of gene dnaK,[1],5.96 ± 0.66
same,change in expression of gene fabA,[1],−1.13 ± 0.76
same,change in expression of gene fabB,[1],1.01 ± 0.66
same,change in expression of gene fabD,[1],−1.64 ± 0.53
same,change in expression of gene flgA,[1],−0.73 ± 1.53
same,change in expression of gene flgB,[1],−3.31 ± 1.51
same,change in expression of gene flgC,[1],−4.46 ± 1.94
same,change in expression of gene flgD,[1],−3.72 ± 1.87
same,change in expression of gene flgE,[1],−2.82 ± 1.18
same,change in expression of gene flgF,[1],−2.88 ± 1.58
same,change in expression of gene flgG,[1],−2.77 ± 1.48
same,change in expression of gene flgH,[1],−2.14 ± 1.71
same,change in expression of gene gabD,[1],0.11 ± 1.32
same,change in expression of gene gabP,[1],1.19 ± 1.28
same,change in expression of gene gabT,[1],0.31 ± 1.28
same,change in expression of gene gadA,[1],−0.52 ± 0.68
same,change in expression of gene gadB,[1],0.17 ± 0.80
same,change in expression of gene gadC,[1],1.28 ± 0.80
same,change in expression of gene gadE,[1],−3.51 ± 0.61
same,change in expression of gene gadW,[1],−2.17 ± 0.95
same,change in expression of gene gadX,[1],−3.69 ± 0.57
same,change in expression of gene gadY,[1],−4.01 ± 0.80
same,change in expression of gene glpA,[1],7.06 ± 0.87
same,change in expression of gene glpB,[1],4.64 ± 0.63
same,change in expression of gene glpC,[1],5.02 ± 0.80
same,change in expression of gene groL,[1],4.57 ± 0.57
same,change in expression of gene groS,[1],4.63 ± 0.50
same,change in expression of gene hchA,[1],2.06 ± 0.60
same,change in expression of gene hslJ,[1],1.41 ± 0.66
same,change in expression of gene hslO,[1],4.56 ± 0.64
same,change in expression of gene hslR,[1],4.80 ± 0.65
same,change in expression of gene hslU,[1],4.95 ± 0.55
same,change in expression of gene hslV,[1],4.81 ± 0.61
same,change in expression of gene ibpA,[1],9.90 ± 1.21
same,change in expression of gene ibpB,[1],10.95 ± 1.50
same,change in expression of gene lhgO,[1],1.38 ± 1.64
same,change in expression of gene lipA,[1],0.42 ± 0.73
same,change in expression of gene lipB,[1],0.61 ± 1.03
same,change in expression of gene narG,[1],4.96 ± 0.65
same,change in expression of gene narH,[1],4.45 ± 0.61
same,change in expression of gene narI,[1],3.11 ± 0.92
same,change in expression of gene narJ,[1],4.11 ± 0.68
same,change in expression of gene narK,[1],3.31 ± 0.84
same,change in expression of gene potA,[1],−2.79 ± 0.81
same,change in expression of gene potB,[1],−1.05 ± 1.29
same,change in expression of gene potC,[1],−0.55 ± 1.19
same,change in expression of gene pspA,[1],10.50 ± 0.55
same,change in expression of gene pspB,[1],9.33 ± 0.68
same,change in expression of gene rpoA,[1],0.17 ± 0.44
same,change in expression of gene rpoB,[1],0.79 ± 0.40
same,change in expression of gene rpoC,[1],1.15 ± 0.39
same,change in expression of gene rpoD,[1],4.75 ± 0.70
same,change in expression of gene rpoE,[1],1.44 ± 0.62
same,change in expression of gene rpoH,[1],1.79 ± 0.52
same,change in expression of gene rpoN,[1],−1.54 ± 0.49
same,change in expression of gene rpoS,[1],0.22 ± 0.47
same,change in expression of gene rpoZ,[1],−0.02 ± 0.53
same,change in expression of gene spy,[1],3.95 ± 0.87
same,change in expression of gene tatA,[1],−1.95 ± 0.52
same,change in expression of gene tatB,[1],−1.59 ± 0.59
same,change in expression of gene tatC,[1],−1.25 ± 1.09
same,change in expression of gene tatD,[1],−1.56 ± 1.13
same,change in expression of gene tatE,[1],−0.97 ± 0.64
same,number of genes with significant changes in expression,"vs control, Bon Ferroni corrected p-value<0.05",530 genes
